For `C[C@@H]1NC(=O)[C@H]2Cc3c([nH]c4ccccc34)[C@@H](c3ccc4c(c3)OCO4)N2C1=O` [Example 3, (3S, 6R,12aR)-2,3,6,7,12,12a-Hexahydro-3-methyl-6-(3,4-methylenedioxyphenyl)-pyrazino[2′, 1′:6,1]pyrido[3,4-b]indole-1,4-dione], the melting point (usually the temperature of the solid-liquid transition) was in the range of 319 to 321 °C. Consider `C[C@H]1C(=O)N2[C@H](c3ccc4c(c3)OCO4)c3[nH]c4ccccc4c3C[C@@H]2C(=O)N1C` [Compound B, (3S, 6R, 12aR)-2,3,6,7,12,12a-hexahydro-2,3-dimethyl-6-(3,4-methylenedioxyphenyl)-pyrazino[2′, 1′:6,1]pyrido[3,4-b]indole-1,4-dione], for which the melting point fell in the range of 307 to 309 °C.
